Test [1] concerns the target T1, SARS-CoV-2 PLpro (nsp3 1564–1878) (Severe acute respiratory syndrome coronavirus 2, UniProt P0DTD1). Description: biochemical. More on the design: FRET-quenched peptide (Pro3) cleavage by PLpro, 10 min pre-incubation, slope over 20 min, normalised to no-compound control. Conditions: high concentration screen, read-out: % of control remaining.
The target in test [2] is T1, SARS-CoV-2 PLpro (nsp3 1564–1878). Briefly: biochemical. More on the design: FRET-quenched peptide (Pro3) cleavage by PLpro, 10 min pre-incubation, slope over 20 min, normalised to no-compound control. Particulars: low concentration screen, read-out: % of control remaining.

Counter-ions that a name gives are not always drawn. Like-named read-outs stand apart in the source and are kept apart here.

Regarding `CCC1=C[C@@H]2CN(C1)Cc1c([nH]c3ccccc13)[C@@](C(=O)OC)(c1cc3c(cc1OC)N(C)[C@H]1[C@@](O)(C(=O)OC)[C@H](OC(C)=O)[C@]4(CC)C=CCN5CC[C@]31[C@@H]54)C2` [Vinorelbine], the remaining activity at 3.75 µM was found to be 108% in test [1] (Well no.=2029) and 100% in test [1] (Well no.=3763). The remaining activity at 1.25 µM in test [2] (Well no.=2029) was 104%; in test [2] (Well no.=3763), 96.8%.
Regarding `CCOC(=O)C1=C[C@]2(CC)CCCN3CCc4c(n1c1ccccc41)[C@@H]32` [Vinpocetine], the remaining activity at 3.75 µM in test [1] (Well no.=1432) was 102%; in test [1] (Well no.=3228), 108%. Moreover, the values for the remaining activity at 1.25 µM in test [2] (Well no.=1432), in test [2] (Well no.=2158) and in test [2] (Well no.=3228) were 99%, 98.7% and 103%, respectively.
Take `Cc1cc(Cn2nnc3c(-c4ccco4)nc(N)nc32)ccc1N` [Vipadenant]: the remaining activity at 3.75 µM in test [1] (Well no.=8603) was found to be 92.7%. Moreover, in test [2] (Well no.=8603), the remaining activity at 1.25 µM stood at 95.2%.
Consider `O=C(O)CC[C@H](NC(=O)N[C@@H](CCCCNC(=O)[C@H](Cc1ccc2ccccc2c1)NC(=O)[C@H]1CC[C@H](CNC(=O)CN2CCN(CC(=O)O)CCN(CC(=O)O)CCN(CC(=O)O)CC2)CC1)C(=O)O)C(=O)O` [Vipivotide tetraxetan], for which the remaining activity at 3.75 µM in test [1] (Well no.=7834) came to 104%. Moreover, in test [2] (Well no.=7834), the remaining activity at 1.25 µM was found to be 103%.
Turning to `COc1c2ccoc2cc2oc(C)cc(=O)c12` [Visnagin], the remaining activity at 3.75 µM in test [1] (Well no.=3689) was found to be 101%. Also, the remaining activity at 1.25 µM in test [2] (Well no.=3689) is 99.6%.
In the case of `CC(=O)OC/C=C(C)/C=C/C=C(C)/C=C/C1=C(C)CCCC1(C)C` [Vitamin A acetate], the remaining activity at 3.75 µM in test [1] (Well no.=1700) turned out to be 97.8%. The remaining activity at 1.25 µM in test [2] (Well no.=1700) came to 101%.
As to `C=C1CC[C@H](O)C/C1=C/C=C1\CCC[C@]2(C)[C@@H]([C@H](C)/C=C/[C@H](C)C(C)C)CC[C@@H]12` [Vitamin D2 (Ergocalciferol)], the remaining activity at 3.75 µM in test [1] (Well no.=4684) is 100%. Moreover, in test [2] (Well no.=4684), the remaining activity at 1.25 µM is 99.3%.
With `C=C1CC[C@H](O)C/C1=C/C=C1\CCC[C@]2(C)[C@@H]([C@H](C)/C=C/[C@H](C)C(C)C)CC[C@@H]12` [Vitamin D2], in test [1] (Well no.=7411), the remaining activity at 3.75 µM is 106%. Also, the remaining activity at 1.25 µM in test [2] (Well no.=7411) was 107%.
Take `C=C1CC[C@H](O)C/C1=C/C=C1\CCC[C@]2(C)[C@@H]([C@H](C)CCCC(C)C)CC[C@@H]12` [Vitamin D3 (Cholecalciferol)]: in test [1] (Well no.=4702), the remaining activity at 3.75 µM is 100%. The remaining activity at 1.25 µM in test [2] (Well no.=4702) amounted to 99.7%.
`C[C@@H]1O[C@@H](O[C@@H]2[C@@H](O)[C@H](O)[C@@H](CO)O[C@H]2c2c(O)cc(O)c3c(=O)cc(-c4ccc(O)cc4)oc23)[C@H](O)[C@H](O)[C@H]1O` [Vitexin-2-O-rhamnoside]: the remaining activity at 3.75 µM in test [1] (Well no.=3405) turned out to be 80.4%. Further, in test [2] (Well no.=3405), the remaining activity at 1.25 µM is 91.6%.
In the case of `O=c1cc(-c2ccc(O)cc2)oc2c([C@@H]3O[C@H](CO)[C@@H](O)[C@H](O)[C@H]3O)c(O)cc(O)c12` [Vitexin], the remaining activity at 3.75 µM in test [1] (Well no.=3396) was 97.6%. Also, the remaining activity at 1.25 µM in test [2] (Well no.=3396) came out at 95.4%.
In the case of `OCC(CO)N[C@H]1C[C@](O)(CO)[C@@H](O)[C@H](O)[C@H]1O` [Voglibose], in test [1] (Well no.=8298), the remaining activity at 3.75 µM was found to be 93.5%. The remaining activity at 1.25 µM in test [2] (Well no.=8298) turned out to be 90.6%.
For the compound `CCOC(=O)N[C@@H]1CC[C@@H]2[C@@H](C1)C[C@H]1C(=O)O[C@H](C)[C@H]1[C@H]2/C=C/c1ccc(-c2cccc(F)c2)cn1` [Vorapaxar], in test [1] (Well no.=7567), the remaining activity at 3.75 µM stood at 89.4%. In addition, the remaining activity at 1.25 µM in test [2] (Well no.=7567) came to 97.6%.
On to `C[C@@H](c1ncncc1F)[C@](O)(Cn1cncn1)c1ccc(F)cc1F` [Voriconazole], for which, in test [1] (Well no.=4857), the remaining activity at 3.75 µM came out at 103%. For the same compound, the remaining activity at 1.25 µM in test [2] (Well no.=4857) turned out to be 101%.
In the case of `O=C(CCCCCCC(=O)Nc1ccccc1)NO` [Vorinostat (SAHA)], the remaining activity at 3.75 µM in test [1] (Well no.=1866) came out at 82.8%. Moreover, the remaining activity at 1.25 µM in test [2] (Well no.=1866) worked out at 87.6%.
For `Cc1ccc(Sc2ccccc2N2CCNCC2)c(C)c1` [Vortioxetine (hydrobromide)], in test [1] (Well no.=7384), the remaining activity at 3.75 µM was determined as 98.7%. For the same compound, the remaining activity at 1.25 µM in test [2] (Well no.=7384) worked out at 98.6%.
With `Cc1ccc(Sc2ccccc2N2CCNCC2)c(C)c1` [Vortioxetine], the remaining activity at 3.75 µM in test [1] (Well no.=6269) came to 102%. The remaining activity at 1.25 µM in test [2] (Well no.=6269) is 102%.
`COC(=O)/C(=C1/OC(=O)C(c2ccccc2)=C1O)c1ccccc1` [Vulpinic acid]: the remaining activity at 3.75 µM in test [1] (Well no.=3513) is 104%. The remaining activity at 1.25 µM in test [2] (Well no.=3513) was determined as 102%.
As to `COc1ccccc1N1CCN(CCN(C(=O)C2CCCCC2)c2ccccn2)CC1` [WAY-100635 (maleate salt)], in test [1] (Well no.=7000), the remaining activity at 3.75 µM amounted to 99.5%. Also, in test [2] (Well no.=7000), the remaining activity at 1.25 µM turned out to be 99.7%.
On to `COc1ccccc1N1CCN(CCN(C(=O)C2CCCCC2)c2ccccn2)CC1` [WAY-100635 maleate], for which the remaining activity at 3.75 µM in test [1] (Well no.=1292) was determined as 107%. In test [2] (Well no.=1292), the remaining activity at 1.25 µM is 107%.
Take `CN(C)CCn1cc(S(=O)(=O)c2cccc(F)c2)c2cccnc21` [WAY-208466 dihydrochloride]: the remaining activity at 3.75 µM in test [1] (Well no.=6065) stood at 97.1%. In addition, the remaining activity at 1.25 µM in test [2] (Well no.=6065) is 98.6%.
Take `CC(C)OC(=O)C1=CN(C(=O)c2ccc(F)c(F)c2)CC(C)(C)c2c1[nH]c1ccccc21` [WAY-362450]: in test [1] (Well no.=4928), the remaining activity at 3.75 µM was 96.2%. In test [2] (Well no.=4928), the remaining activity at 1.25 µM stood at 95.1%.
Consider `COc1cccc(OC)c1OCCNCC1COc2ccccc2O1` (centres unmarked) [WB-4101 hydrochloride], for which, in test [1] (Well no.=443), the remaining activity at 3.75 µM came to 99.1%. Also, the remaining activity at 1.25 µM in test [2] (Well no.=443) turned out to be 96%.
`Cc1ccc(-c2nn(C(C)(C)CNC(=O)c3ccncc3)c3ncnc(N)c23)cc1` [WEHI-345]: the remaining activity at 3.75 µM in test [1] (Well no.=6690) is 96.2%. The remaining activity at 1.25 µM in test [2] (Well no.=6690) amounted to 96.4%.
In the case of `COc1cc2ncnc(Nc3ccc(O)cc3)c2cc1OC` [WHI-P131], the remaining activity at 3.75 µM in test [1] (Well no.=1338) worked out at 97.1%. Further, in test [2] (Well no.=1338), the remaining activity at 1.25 µM turned out to be 93.8%.
`COc1cc2ncnc(Nc3cccc(O)c3)c2cc1OC` [WHI-P180, Hydrochloride]: the remaining activity at 3.75 µM in test [1] (Well no.=2679) stood at 96.7%. Moreover, the remaining activity at 1.25 µM in test [2] (Well no.=2679) worked out at 96%.
As for `C#C[C@]1(O)CC[C@H]2[C@@H]3CCC4=Cc5nc6nc7ccccc7n6cc5C[C@]4(C)[C@H]3CC[C@@]21C` [WIN 62,577], the remaining activity at 3.75 µM in test [1] (Well no.=1196) turned out to be 97.4%. Also, the remaining activity at 1.25 µM in test [2] (Well no.=1196) worked out at 99.9%.
With `C[C@H](NC(=O)/C(C#N)=C/c1cccc(Br)n1)c1ccccc1` [WP1066], the remaining activity at 3.75 µM in test [1] (Well no.=4779) came out at 99%. Moreover, the remaining activity at 1.25 µM in test [2] (Well no.=4779) came to 103%.
Take `CCC[C@H](NC(=O)/C(C#N)=C/c1cccc(Br)n1)c1ccccc1` [WP1130]: the remaining activity at 3.75 µM in test [1] (Well no.=4862) was 98.1%. The remaining activity at 1.25 µM in test [2] (Well no.=4862) came out at 95.4%.
Regarding `NCCCNCCS` [WR-1065 dihydrochloride], the remaining activity at 3.75 µM in test [1] (Well no.=6786) turned out to be 94.3%. The remaining activity at 1.25 µM in test [2] (Well no.=6786) was determined as 94.6%.

Values taken from publication PMC8286840, “Identifying SARS-CoV-2 antiviral compounds by screening for small molecule inhibitors of Nsp3 papain-like protease” (Biochemical Journal, 2021).
